Data from patent US11433055B2, “Chromane monobactam compounds for the treatment of bacterial infections” (priority 2017, dated 2022).
Counter-ions that a name gives are not always drawn.

Tests used:
Type in all cases: cell-based
Details in all cases: lowest concentration inhibiting 95% of bacterial growth; in the presence of β lactamase inhibitor (BLi, Relebactam); 22 hours, 35±2° C., OD600
[1] = tested on: Klebsiella pneumoniae expressing KPC-1 (CL6569)
Procedure: (§1) Antibiotic Activity: Determination of Growth Inhibitory Concentration
(§2) The concentrations of compounds required to inhibit the growth of various strains of bacteria were determined in an assay that assessed bacterial growth by measuring optical density at 600 nm (OD600). The bacterial strains tested included the clinical strains Escherichia coli expressing NDM-1 (CLB30016), Klebsiella pneumoniae expressing KPC-1 (CL6569), Acinetobacter baumannii expressing TEM-1, AmpC, and Oxa-24/40 (CL6188) and Pseudomonas aeruginosa expressing AmpC (CL5701). All compounds were tested in the presence of a β lactamase inhibitor (BLi, Relebactam) in 384-well microplates. The clinical strains were stored as frozen single use stocks, thawed and diluted into 1.1× cation-adjusted Mueller-Hinton II broth to achieve approximately 2×10^5 CFU/mL. Test compounds were dissolved in DMSO and diluted 1:50 in the assay, resulting in a final concentration range of 100 μM to 0.098 μM. On the day of the assay, 1 μL of test compound was added to the plate followed by 4 μL of 50 μg/mL BLi in MOPS buffer and 45 μL of diluted bacteria. Plates were centrifuged at 1000 rpm for 30 seconds, shaken at approximately 800 rpm for 1 minute, and incubated at 35±2° C. for 22 hours. The concentration of BLi used in the assay was […]. At the end of the incubation, absorbance at 600 nm was determined using a spectrophotometer. Inhibition was quantitated by identifying the lowest concentration of test compound that was required to inhibit 95% of the growth of the bacteria. The results for Examples 1-39 are reported in Table I, expressed as the concentration of compound that inhibited 95% of bacterial growth (Minimum Inhibitory Threshold Concentration; MITC95).

[2] = tested on: Pseudomonas aeruginosa expressing AmpC (CL5701)
Procedure: as §1, §2

[3] = tested on: Escherichia coli expressing NDM-1 (CLB30016)
Procedure: as §1, §2

[4] = tested on: Acinetobacter baumannii expressing TEM-1, AmpC, and Oxa-24/40 (CL6188)
Procedure: as §1, §2

| Compound | KP_CL6569 MITC95 [1] [µM] | PA_CL5701 MITC95 [2] [µM] | EC_CLB30016 MITC95 [3] [µM] | AB_CL6188 MITC95 [4] [µM] |
| --- | --- | --- | --- | --- |
| CC1(C)[C@H](NC(=O)/C(=N\O[C@](C)(C(=O)O)[C@H]2CCc3cc(-c4cn(C[C@@H](O)CN)[n+](C[C@@H]5CCNC5)c4)ccc3O2)c2csc(N)n2)C(=O)N1OS(=O)(=O)O.O=C([O-])C(F)(F)F [Example 40, Mono((S)-3-((Z)-2-(((S)-1-((R)-6-(1-((S)-3-amino-2-hydroxypropyl)-2-((R)-pyrrolidin-3-ylmethyl)-1H-pyrazol-2-ium-4-yl)chroman-2-yl)-1-carboxyethoxy)imino)-2-(2-aminothiazol-4-yl)acetamido)-2,2-dimethyl-4-oxoazetidin-1-yl sulfate) mono (2,2,2-trifluoroacetate)] | 0.1 | 0.78 | >50 | 1.56 |
| CC1(C)[C@H](NC(=O)/C(=N\O[C@](C)(C(=O)O)[C@H]2CCc3cc(C4CN=C(NC[C@@H](O)CN)NC4)ccc3O2)c2csc(N)n2)C(=O)N1OS(=O)(=O)O.O=CO (stereo partly drawn) [Example 29, 2-(((S)-3-amino-2-hydroxypropyl)amino)-5-((R)-2-((S)-1-((((Z)-1-(2-aminothiazol-4-yl)-2-(((S)-2,2-dimethyl-4-oxo-1-(sulfooxy)azetidin-3-yl)amino)-2-oxoethylidene)amino)oxy)-1-carboxyethyl)chroman-6-yl)-3,4,5,6-tetrahydropyrimidin-1-ium formate] | 1.563 | 6.25 | 25 | 3.125 |
| C[n+]1cc(-c2ccc3c(c2)CC[C@H]([C@](C)(O/N=C(\C(=O)N[C@@H]2C(=O)N(OS(=O)(=O)[O-])C2(C)C)c2csc(N)n2)C(=O)O)O3)ccc1NCCN [Example 34, mono((S)-3-((Z)-2-(2-aminothiazol-3-ium-4-yl)-2-(((S)-1-((R)-6-(6-((2-ammonioethyl)amino)-1-methylpyridin-1-ium-3-yl)chroman-2-yl)-1-carboxy-ethoxy)imino)acetamido)-2,2-dimethyl-4-oxoazetidin-1-yl sulfate) mono(2,2,2-trifluoroacetate)] | 0.78 | 25 | 25 | 12.5 |
| C[n+]1cc(-c2ccc3c(c2)OCC(CO/N=C(\C(=O)N[C@@H]2C(=O)N(OS(=O)(=O)[O-])C2(C)C)c2csc(N)n2)C3)ccc1NCCN.O=C(O)C(F)(F)F (single isomer, unassigned) [Example 37B] | 6.25 | 25 | 100 | 50 |
| C[n+]1cc(-c2ccc3c(c2)CC[C@H](CO/N=C(\C(=O)N[C@@H]2C(=O)N(OS(=O)(=O)[O-])C2(C)C)c2csc(N)n2)O3)cn1CCCN [Example 11, (S)-3-((Z)-2-((((R)-6-(1-(3-aminopropyl)-2-methyl-1H-pyrazol-2-ium-4-yl)chroman-2-yl)methoxy)imino)-2-(2-aminothiazol-4-yl)acetamido)-2,2-dimethyl-4-oxoazetidin-1-yl sulfate] | 0.7813 | 3.125 | 6.25 | 3.125 |
| C[n+]1cc(-c2ccc3c(c2)OCC(CO/N=C(\C(=O)N[C@@H]2C(=O)N(OS(=O)(=O)[O-])C2(C)C)c2csc(N)n2)C3)ccc1NCCN.O=C(O)C(F)(F)F (stereo partly drawn) [Example 38, mono((S)-3-((Z)-2-(2-aminothiazol-3-ium-4-yl)-2-((((S)-7-(6-((2-ammonioethyl)amino)-1-methylpyridin-1-ium-3-yl)chroman-3-yl)methoxy)imino)acetamido)-2,2-dimethyl-4-oxoazetidin-1-yl sulfate) mono(2,2,2-trifluoroacetate)] | 0.3906 | 6.25 | 6.25 | 6.25 |
| CC1(C)[C@H](NC(=O)/C(=N\O[C@](C)(C(=O)O)[C@H]2CCc3cc(C4CN=C(NCCN)NC4)ccc3O2)c2csc(N)n2)C(=O)N1OS(=O)(=O)O.O=CO (stereo partly drawn) [Example 30, 2-((2-aminoethyl)amino)-5-((R)-2-((S)-1-((((Z)-1-(2-aminothiazol-4-yl)-2-(((S)-2,2-dimethyl-4-oxo-1-(sulfooxy)azetidin-3-yl)amino)-2-oxoethylidene)amino)oxy)-1-carboxyethyl)chroman-6-yl)-3,4,5,6-tetrahydropyrimidin-1-ium formate] | 3.125 | 6.25 | 25 | 25 |
| C[n+]1cc(-c2ccc3c(c2)CC[C@H](CO/N=C(\C(=O)N[C@@H]2C(=O)N(OS(=O)(=O)[O-])C2(C)C)c2csc(N)n2)O3)ccc1NCCN [Example 35, mono((R)-3-((Z)-2-(2-aminothiazol-3-ium-4-yl)-2-((((R)-6-(6-((2-ammonioethyl)amino)-1-methyl-pyridin-1-ium-3-yl)chroman-2-yl)methoxy)imino)acetamido)-2,2-dimethyl-4-oxoazetidin-1-yl sulfate) mono(2,2,2-trifluoroacetate)] | 1.281 | 50 | 25 | 6.25 |
| CC1(C)[C@H](NC(=O)/C(=N\O[C@](C)(C(=O)O)[C@H]2CCc3cc(-c4cnc(NC[C@@H](O)CN)[n+](CC5CNC5)c4)ccc3O2)c2csc(N)n2)C(=O)N1OS(=O)(=O)[O-].O=CO [Example 20, (S)-3-((Z)-2-(((S)-1-((R)-6-(2-(((S)-3-amino-2-hydroxy-propyl)amino)-1-(azetidin-1-ium-3-ylmethyl)pyrimidin-1-ium-5-yl)chroman-2-yl)-1-carboxyethoxy)imino)-2-(2-aminothiazol-4-yl)acetamido)-2,2-dimethyl-4-oxoazetidin-1-yl sulfate formate] | 0.3906 | 6.25 | 6.25 | 6.25 |
| CC1(C)[C@H](NC(=O)/C(=N\O[C@](C)(C(=O)O)[C@H]2CCc3cc(C4CN=C(NCCCN)NC4)ccc3O2)c2csc(N)n2)C(=O)N1OS(=O)(=O)O (stereo partly drawn) [Example 27, (2S)-2-((2R)-6-(2-((3-aminopropyl)amino)-1,4,5,6-tetrahydropyrimidin-5-yl)chroman-2-yl)-2-(((Z)-(1-(2-aminothiazol-4-yl)-2-(((S)-22-dimethyl-4-oxo-1-(sulfooxy)azetidin-3-yl)amino)-2-oxoethylidene)amino)oxy)propanoic Acid] | 0.7813 | 6.25 | 12.5 | 12.5 |
| C[n+]1cc(-c2ccc3c(c2)CC[C@@H](CO/N=C(\C(=O)N[C@@H]2C(=O)N(OS(=O)(=O)[O-])C2(C)C)c2csc(N)n2)O3)cn1CCCN [Example 10, (S)-3-((Z)-2-((((S)-6-(1-(3-aminopropyl)-2-methyl-1H-pyrazol-2-ium-4-yl)chroman-2-yl)methoxy)imino)-2-(2-aminothiazol-4-yl)acetamido)-2,2-dimethyl-4-oxoazetidin-1-yl sulfate] | 0.3906 | 6.25 | 6.25 | 12.5 |
| C[n+]1cc(-c2ccc3c(c2)CC[C@H]([C@](C)(O/N=C(\C(=O)N[C@@H]2C(=O)N(OS(=O)(=O)[O-])C2(C)C)c2csc(N)n2)C(=O)O)O3)cn1C[C@H](O)CN [Example 7, (S)-3-((Z)-2-(((S)-1-((R)-6-(1-((R)-3-amino-2-hydroxypropyl)-2-methyl-1H-pyrazol-2-ium-4-yl)chroman-2-yl)-1-carboxyethoxy)imino)-2-(2-aminothiazol-4-yl)acetamido)-2,2-dimethyl-4-oxoazetidin-1-yl sulfate] | 1.563 | 12.5 | 25 | 25 |
